Source: patent publication US6649172B2, “Amphipathic aldehydes and their uses as adjuvants and immunoeffectors” (Corixa Corporation, priority 2000, dated 2003)

Legend:
[1] = tested on: recombinant hepatitis B surface antigen (rHBsAg); experiment: Serum antibody titers to rHBsAg by ELISA after vaccination (Example 7); format: in vivo, BALB/c mice
Method: For the evaluation of antibody responses, […] by vaginal wash and individually tested for HBsAg-specific antibody activity by enzyme-linked immunosorbent assay (ELISA). The endpoint antibody titers of each mouse are evaluated as total IgG, IgG1, IgG2a, IgG2b and IgA specific for rHBsAg.
Compound III, isotucaresol, was evaluated for adjuvant activity with a model hepatitis B vaccine. III, was prepared as an aqueous formulation in PBS and admixed with recombinant hepatitis B surface antigen (rHBsAg) (Rhein Biotech, Düisseldorf, Germany) with or without the AGP adjuvant 99 (2-[(R)-3-tetradecanoyloxytetradecanoylamino]ethyl 2-Deoxy-4-O-phosphono-3-O-[(R)-3-tetradecanoyloxytetradecanoyl]-2-[(R)-3-tetradecanoyloxytetradecanoylamino]-β-D-glucopyranoside Triethylammonium Salt). Mice were administered the vaccines on days 0 and 21 by subcutaneous (s.c.) injection of vaccine containing 1 μg rHBsAg±1000 μg III±5 μg 99. The antigen-specific immune response to rHBsAg was evaluated by measurement of serum antibody and cytotoxic T lymphocytes (CTL).

[2] = tested on: transfected P815 cell line (P815S); experiment: CTL activity, four hour 51Cr-release assay with spleen cells of vaccinated mice (Example 7); format: in vivo, BALB/c mice; details: for Percent Specific Cell Lysis (50:1): 50:1 effector:target ratio, P815S targets, spleen cells 26 days after secondary vaccination, s.c. days 0 and 21, 1 μg rHBsAg ± 1000 μg III ± 5 μg 99
Method: Fourteen days after the second injection single cell suspensions are prepared from splenic lymphocytes of 3 mice per group. The spleen cells (75×10^6) are subsequently incubated at 37° C. in 10 ml RP10-SC media containing 50 nM of an L^d-restricted HBV CTL epitope ([…]) for 4 days. Stimulated effector cells are harvested, resuspended to 5×10^6 […] and serially diluted (in triplicate) in a volume of 100 μl RP10-SC/well of a 96 well microtiter plate followed by the addition of […] of RP10-SC containing 1×10^4 51Cr labeled P815S target cells (transfected P815 cells (H-2^d) expressing the hepatitis B S-antigen). Plates are centrifuged for 5 min at 400×g and placed in a 37° C. CO2 incubator for 4 h. Percent specific cytotoxicity is then determined.
(§1) Spleen cells were collected from donor mice 26 days after the secondary vaccination and evaluated for CTL activity. rHBsAg directed specific lysis was assessed in a standard four hour ^51Cr-release assay and by measurement of CD8+, IFNγ+ using flow cytometry.

CD8+, IFNγ+ cells [3] = experiment: CD8+, IFNγ+ lymphocytes by flow cytometry, spleen cells of vaccinated mice (Example 8); as to CTL Ratio of CD8+, IFNγ+ Lymphocytes: key: N: 1:5000-1:1000; 1N: 1:999-1:750; 2N: 1:749-1:500; 3N: 1:499-1:250; 4N: 1:249-1:200; 5N: 1:199-1:100; format: in vivo, BALB/c mice; details: for CTL Ratio of CD8+, IFNγ+ Lymphocytes: female BALB/c mice, s.c. days 0 and 14, spleen cells 11 days after secondary vaccination; for CTL response to the hepatitis vaccine antigen (summary in words): rHBsAg vaccine, s.c. days 0 and 14, mice, CD8+, IFNγ+ flow cytometry
Method: Spleen cells were collected from donor mice 11 days after the secondary vaccination and evaluated for CTL activity. The rHBsAg directed CTL was assessed by measurement of CD8+, IFNγ+ using flow cytometry.

CD8+, IFNγ+ cells [4] = experiment: CD8+, IFNγ+ lymphocytes by flow cytometry, spleen cells of vaccinated mice (Example 7); also: key: N: 1:5000-1:1000; 1N: 1:999-1:750; 2N: 1:749-1:500; 3N: 1:499-1:250; 4N: 1:249-1:200; 5N: 1:199-1:100; format: in vivo, BALB/c mice; details: spleen cells 26 days after secondary vaccination, 75 nM CTL epitope peptide, six-hour incubation; s.c. days 0 and 21, 1 μg rHBsAg ± 1000 μg III ± 5 μg 99
Method: as §1

[5] = tested on: recombinant hepatitis B surface antigen (rHBsAg); experiment: Serum antibody titers to rHBsAg by ELISA after vaccination (Example 8); format: in vivo, BALB/c mice; details: for adjuvant activity: serum antibody production (summary in words): rHBsAg vaccine, s.c. days 0 and 14, mice
Method: Compounds 40, 42, and 44, were evaluated for adjuvant activity with a model hepatitis B vaccine. These compounds were prepared as aqueous formulations in PBS and admixed with recombinant hepatitis B surface antigen (rHBsAg) with or without the AGP adjuvant 99. Compound 99 was solubilized in an aqueous formulation containing dipalmitoylphosphatidyl choline in water. Mice were administered the vaccines on days 0 and 14 by subcutaneous (s.c.) injection. The antigen-specific immune response to rHBsAg was evaluated by measurement of serum antibody and cytotoxic T lymphocytes (CTL). The results shown in Table 3 confirm the adjuvant activity of compounds of 40, 42, and 44.

[6] = tested on: sheep red blood cells (SRBC); details: cited from earlier work
[7] = female BALB/c mice, s.c. days 0 and 21, 1 μg rHBsAg ± 1000 μg III ± 5 μg 99, serum 21 days post-secondary vaccination, ELISA
[8] = adjuvant dose 5 μg with rHBsAg, female BALB/c mice, s.c. days 0 and 14, serum 11 days post-secondary vaccination, ELISA
[9] = adjuvant dose 250 μg with rHBsAg
[10] = adjuvant dose 500 μg with rHBsAg
[11] = adjuvant dose 1000 μg with rHBsAg
[12] = adjuvant dose 250 μg with rHBsAg, female BALB/c mice, s.c. days 0 and 14, serum 11 days post-secondary vaccination, ELISA
[13] = 1 μg rHBsAg + 1000 μg III + 5 μg 99, s.c. days 0 and 21, mice

Compound	Gross Geometric Mean Serum Titers IgG1 [1, 7]	Percent Specific Cell Lysis (50:1) [2]	Lymphocytes CD8+, IFNγ+ (ratio of CD8+, IFNγ+ cells to total CD8+ cells) (CD8+, IFNγ+ cells [4])	CTL Ratio of CD8+, IFNγ+ Lymphocytes (CD8+, IFNγ+ cells [3]; [9])	CTL Ratio of CD8+, IFNγ+ Lymphocytes (CD8+, IFNγ+ cells [3]; [10])	CTL Ratio of CD8+, IFNγ+ Lymphocytes (CD8+, IFNγ+ cells [3]; [11])	CTL response to the hepatitis vaccine antigen (summary in words) (CD8+, IFNγ+ cells [3])	Gross Geometric Serum Titers IgG1 [5, 12]	adjuvant activity: serum antibody production (summary in words) [5]	melting point	further results
2-[(R)-3-tetradecanoyloxytetradecanoylamino]ethyl 2-Deoxy-4-O-phosphono-3-O-[(R)-3-tetradecanoyloxytetradecanoyl]-2-[(R)-3-tetradecanoyloxytetradecanoylamino]-β-D-glucopyranoside triethylammonium salt [Compound 99, reference compound]	5,000X	5+ (“5+” is 41-50 Percent Specific Cell Lysis)	3N								Gross Geometric Mean Serum Titers IgG2a [1, 7]: 5,000X; CTL Ratio of CD8+, IFNγ+ Lymphocytes (CD8+, IFNγ+ cells [3]; adjuvant dose 5 μg with rHBsAg): 4N; Gross Geometric Serum Titers IGG [5, 8]: 5,000X; Gross Geometric Serum Titers IgG2a [5, 8]: 5,000X
COC(=O)c1ccc(COc2ccc(O)c(C=O)c2)cc1 [Compound 40, methyl 4-(3-formyl-4-hydroxyphenoxymethyl)benzoate]				3N	2N	5N	enhance the CTL response	1,000X	enhanced serum antibody production	132 to 134 °C	Gross Geometric Serum Titers IgG1 ([5]; adjuvant dose 500 μg with rHBsAg, female BALB/c mice, s.c. days 0 and 14, serum 11 days post-secondary vaccination, ELISA): 5,000X; Gross Geometric Serum Titers IgG1 ([5]; adjuvant dose 1000 μg with rHBsAg, female BALB/c mice, s.c. days 0 and 14, serum 11 days post-secondary vaccination, ELISA): 5,000X
O=Cc1cc(OCc2ccc(C(=O)O)cc2)ccc1OCC(=O)O [Compound 42, 4-[(4-carboxymethoxy-3-formyl-phenoxy)methyl]benzoic acid]				5N	3N	2N	enhance the CTL response	1,000X	enhanced serum antibody production	239 to 242 °C (dec.)	
O=Cc1cc(OCc2ccc(C(=O)O)cc2)ccc1OCCCC(=O)O [Compound 44]				4N	3N	2N	enhance the CTL response		enhanced serum antibody production		
O=Cc1cc(OCc2ccc(C(=O)O)cc2)ccc1O [Compound III, 4-[(3-formyl-4-hydroxyphenoxy)methyl]benzoic acid]	5,000X	4+ (“4+” is 31-40 Percent Specific Cell Lysis)	2N							222 to 224 °C (dec.)	interaction with the AGP adjuvant 99 on serum antibody (summary in words) [1, 13]: acts synergistically; adjuvant activity: serum antibody production (summary in words) ([1]; 1 μg rHBsAg + 1000 μg III, s.c. days 0 and 21, mice): enhanced serum antibody production; Gross Geometric Mean Serum Titers IgG [1, 7]: 5,000X; effect on the CTL adjuvant activity induced by 99 (summary in words) [2, 13]: additive effect; CTL response to the vaccine antigen (summary in words) ([2]; 1 μg rHBsAg + 1000 μg III, s.c. days 0 and 21, mice, 51Cr-release and CD8+, IFNγ+ flow cytometry): enhances the CTL response
C[C@@H]1CC[C@@]2(OC1)O[C@H]1[C@@H](O)[C@H]3[C@@H]4CC[C@H]5C[C@@H](O[C@@H]6O[C@H](CO)[C@H](O[C@@H]7O[C@H](CO)[C@@H](O)[C@H](O[C@@H]8OC[C@@H](O)[C@H](O)[C@H]8O)[C@H]7O[C@@H]7O[C@H](CO)[C@H](O)[C@H](O[C@@H]8O[C@H](CO)[C@@H](O)[C@H](O)[C@H]8O)[C@H]7O)[C@H](O)[C@H]6O)[C@H](O)C[C@]5(C)[C@H]4CC[C@]3(C)[C@H]1[C@@H]2C [digitonin]											hemolytic activity towards red blood cells [6]: highly hemolytic
